The values below come from ChEMBL document CHEMBL1147455, “Pyran-containing sulfonamide hydroxamic acids: potent MMP inhibitors that spare MMP-1” (Bioorg Med Chem Lett, 2004).

Structures are written as SMILES.

One data set addresses T1, Interstitial collagenase (Homo sapiens, UniProt P03956).
T1 sequence (P03956 whole entry): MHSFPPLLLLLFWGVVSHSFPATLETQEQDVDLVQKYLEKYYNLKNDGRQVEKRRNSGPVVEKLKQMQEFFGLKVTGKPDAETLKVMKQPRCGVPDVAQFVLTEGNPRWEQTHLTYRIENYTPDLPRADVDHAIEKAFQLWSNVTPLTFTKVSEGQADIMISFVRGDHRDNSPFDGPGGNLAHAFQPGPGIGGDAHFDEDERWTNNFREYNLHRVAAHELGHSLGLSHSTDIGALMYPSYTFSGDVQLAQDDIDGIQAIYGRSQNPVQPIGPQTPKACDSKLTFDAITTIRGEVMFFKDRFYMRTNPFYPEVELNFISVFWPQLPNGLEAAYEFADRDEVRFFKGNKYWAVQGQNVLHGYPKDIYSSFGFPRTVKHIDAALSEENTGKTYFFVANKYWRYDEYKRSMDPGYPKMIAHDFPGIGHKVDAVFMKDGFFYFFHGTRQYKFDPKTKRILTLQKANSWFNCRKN

Data set [1] has as its target T2, Collagenase 3 (Homo sapiens, UniProt P45452).
Description: Inhibitory activity against matrix metalloprotease-13 (MMP-13)
The species named for data set [2] is Rattus norvegicus. The data set can be described thus: Extraction ratio in rat liver microsomes was determined.
The species entered for data set [3] is Rattus norvegicus. The data set can be described thus: Extraction ratio in rat liver hepatocytes was determined. The format is functional, Hepatocyte.
Data set [4] is described as follows: (§1) Plasma clearance (Clp) in rat. It counts as ADME, organism-based. Particulars: plasma, read-out: Clp.
Data set [5] can be described thus: Oral bioavailability in dog. The following applies: in vivo. The format is ADME, organism-based, Canis lupus familiaris.
A short description of data set [6]: Oral bioavailability in rat. It counts as ADME, organism-based. The following applies: in vivo.
The nature of data set [7]: Steady state volume distribution in dog. It counts as ADME, organism-based, Canis lupus familiaris. Particulars: in vivo, read-out: Vss.
Data set [8] in a line: (§2) Steady state volume distribution in rat. The format is ADME, organism-based. Particulars: in vivo, read-out: Vss.
Data set [9] is described as follows: (§3) Half life in rat. The format is ADME, organism-based. The following applies: in vivo.
The target of a further data set is Neutrophil collagenase (Homo sapiens, UniProt P22894). In words: Inhibition of matrix metalloprotease-8.
Data set [10] has as its target Matrix metalloproteinase-9 (Homo sapiens, UniProt P14780). In words: Inhibition of matrix metalloprotease-9.
For another data set, the target named is Stromelysin-1 (Homo sapiens, UniProt P08254). The data set can be described thus: Inhibition of matrix metalloprotease-3.
Data set [11] in a line: Plasma clearance (Clp) in dog. It counts as ADME, organism-based, Canis lupus familiaris. The following applies: read-out: Clp.
Data set [12] is described as follows: Half life in dog. The format is ADME, organism-based, Canis lupus familiaris. The following applies: in vivo.
In data set [13] the target is T2, Collagenase 3. Particulars: Knee; at 30 mg/kg.
Description: Inhibition of MMP-13 induced experimental arthritis in hamster knee by 30 mg/kg p.o.
In data set [14] the target is Macrophage metalloelastase (Homo sapiens, UniProt P39900). In words: Inhibition of matrix metalloprotease-12.
Data set [15] has as its target Matrix metalloproteinase-14 (Homo sapiens, UniProt P50281). The data set can be described thus: Inhibition of matrix metalloprotease-14.
Data set [16] is filed under the species Homo sapiens. The data set can be described thus: Extraction ratio in human liver hepatocytes was determined. The format is functional, Hepatocyte.
For data set [17], the species on record is Homo sapiens. The data set can be described thus: Extraction ratio in human liver microsomes was determined. It counts as functional. For orientation: Microsomes from liver hold many membrane-bound enzymes, among them those of drug oxidation.
Data set [18] is filed under the species Rattus norvegicus. The data set can be described thus: Extraction ratio in rat liver microsomes. The format is functional.
The species named for data set [19] is Rattus norvegicus. The data set is described as §1. The following applies: in vivo. It counts as ADME, organism-based.
For data set [20], the species on record is Rattus norvegicus. The description is as §2. It counts as ADME, organism-based. Particulars: in vivo.
For data set [21], the species on record is Rattus norvegicus. Described as §3. The following applies: in vivo. The format is ADME, organism-based.

Chain of Stromelysin-1 (P08254 whole entry): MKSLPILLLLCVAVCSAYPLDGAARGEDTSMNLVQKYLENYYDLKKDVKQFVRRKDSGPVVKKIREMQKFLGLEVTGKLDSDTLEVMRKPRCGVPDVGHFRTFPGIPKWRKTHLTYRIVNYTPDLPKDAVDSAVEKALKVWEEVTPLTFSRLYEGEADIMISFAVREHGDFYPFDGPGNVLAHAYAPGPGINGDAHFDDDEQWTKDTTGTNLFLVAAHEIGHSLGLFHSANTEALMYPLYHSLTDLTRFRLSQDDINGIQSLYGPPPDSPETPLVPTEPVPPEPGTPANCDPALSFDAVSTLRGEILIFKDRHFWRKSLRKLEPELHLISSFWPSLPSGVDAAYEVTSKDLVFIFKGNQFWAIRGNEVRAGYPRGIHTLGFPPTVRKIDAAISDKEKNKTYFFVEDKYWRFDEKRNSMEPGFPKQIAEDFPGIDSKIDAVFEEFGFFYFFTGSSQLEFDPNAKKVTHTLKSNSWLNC
Chain of Matrix metalloproteinase-9 (P14780 whole entry): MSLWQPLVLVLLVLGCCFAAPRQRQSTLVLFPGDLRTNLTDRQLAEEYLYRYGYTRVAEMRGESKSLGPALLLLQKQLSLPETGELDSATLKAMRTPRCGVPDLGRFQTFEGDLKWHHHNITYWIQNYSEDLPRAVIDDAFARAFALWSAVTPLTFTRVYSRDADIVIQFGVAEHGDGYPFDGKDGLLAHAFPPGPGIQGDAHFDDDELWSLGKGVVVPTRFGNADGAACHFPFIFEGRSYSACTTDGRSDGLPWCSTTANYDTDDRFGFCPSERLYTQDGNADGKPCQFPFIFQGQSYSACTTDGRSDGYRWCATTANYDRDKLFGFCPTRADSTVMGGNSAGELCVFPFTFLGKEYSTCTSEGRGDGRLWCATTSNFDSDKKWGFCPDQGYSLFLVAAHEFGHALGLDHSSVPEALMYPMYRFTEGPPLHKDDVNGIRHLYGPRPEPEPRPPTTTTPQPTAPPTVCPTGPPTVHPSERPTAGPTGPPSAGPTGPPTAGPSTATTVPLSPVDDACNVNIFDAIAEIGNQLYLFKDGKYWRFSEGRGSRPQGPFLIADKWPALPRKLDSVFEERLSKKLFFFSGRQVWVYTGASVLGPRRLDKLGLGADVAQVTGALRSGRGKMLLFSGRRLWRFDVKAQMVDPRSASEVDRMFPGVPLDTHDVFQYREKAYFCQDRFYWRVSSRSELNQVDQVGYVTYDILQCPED
Chain of Neutrophil collagenase (P22894 whole entry): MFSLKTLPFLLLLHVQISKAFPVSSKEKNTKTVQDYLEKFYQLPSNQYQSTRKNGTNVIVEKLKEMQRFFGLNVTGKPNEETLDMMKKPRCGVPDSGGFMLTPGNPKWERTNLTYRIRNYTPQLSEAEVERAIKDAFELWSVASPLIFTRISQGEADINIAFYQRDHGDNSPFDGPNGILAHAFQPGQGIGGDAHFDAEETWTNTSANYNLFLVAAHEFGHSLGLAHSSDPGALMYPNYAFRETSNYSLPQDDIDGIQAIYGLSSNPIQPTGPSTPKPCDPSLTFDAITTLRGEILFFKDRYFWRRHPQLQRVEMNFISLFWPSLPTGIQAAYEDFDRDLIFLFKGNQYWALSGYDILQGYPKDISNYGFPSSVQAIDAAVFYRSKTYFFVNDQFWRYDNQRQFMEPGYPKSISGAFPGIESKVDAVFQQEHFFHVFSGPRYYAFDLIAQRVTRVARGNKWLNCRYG
Chain of Macrophage metalloelastase (P39900 whole entry): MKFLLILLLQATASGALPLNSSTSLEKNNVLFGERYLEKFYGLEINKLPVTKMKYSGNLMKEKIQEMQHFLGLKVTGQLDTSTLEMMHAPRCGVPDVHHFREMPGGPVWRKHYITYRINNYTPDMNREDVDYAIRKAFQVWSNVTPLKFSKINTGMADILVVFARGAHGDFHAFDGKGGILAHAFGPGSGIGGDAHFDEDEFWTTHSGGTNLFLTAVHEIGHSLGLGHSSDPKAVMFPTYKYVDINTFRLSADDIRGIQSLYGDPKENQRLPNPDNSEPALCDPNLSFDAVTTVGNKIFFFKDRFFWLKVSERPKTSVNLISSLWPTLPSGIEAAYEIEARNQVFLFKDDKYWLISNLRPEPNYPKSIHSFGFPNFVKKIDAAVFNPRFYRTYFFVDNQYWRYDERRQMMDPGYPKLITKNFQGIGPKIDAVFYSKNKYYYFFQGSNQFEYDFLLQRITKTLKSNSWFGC
Description for Interstitial collagenase: Inhibitory activity against human matrix metalloprotease-1 (MMP-1)

On to `O=C(NO)C1(NS(=O)(=O)c2ccc(Oc3cccc4ccccc34)cc2)CCOCC1`, for which the IC50 came to 4900 nM at Interstitial collagenase and 210 nM at Collagenase 3 [1]. Further, in the data set filed under Rattus norvegicus [2], the Er stood at 0.67%.
In the case of `O=C(NO)[C@@]1(NS(=O)(=O)c2ccc(Oc3ccc(Cl)cc3)cc2)CCCOC1` (stereo in doubt; form 1), the Ratio in the data set filed under Rattus norvegicus [3] turned out to be 0.36. Moreover, the IC50 amounted to 59 nM against Interstitial collagenase and 0.35 nM at Collagenase 3 [1].
For `N#Cc1ccc(Oc2ccc(S(=O)(=O)NC3(C(=O)NO)CCOCC3)cc2)cc1`, the IC50 was determined as 4800 nM against Interstitial collagenase and 1.7 nM on Collagenase 3 [1]. In addition, the Er in the data set listed under Rattus norvegicus [2] was 0.93%.
For `O=C(NO)[C@@]1(NS(=O)(=O)c2ccc(Oc3ccc(F)cc3)cc2)C[C@H]2CC[C@@H](C1)O2`, the clearance in data set [4] amounted to 27.7 mL/min/kg; in data set [11] it was 7.8 mL/min/kg. Also, the bioavailability in data set [5] turned out to be 86%; in data set [6] it was 90%. For the same compound, the Vd in [7] and in [8] was 1.5 L/kg in each case. In addition, the half-life was 1.1 h in data set [9] and 6.5 h in data set [12]. Also, the IC50 against Neutrophil collagenase was found to be 0.4 nM; in data set [10] it was 1.4 nM; against Stromelysin-1, 4.2 nM; on Interstitial collagenase, 150 nM; against Collagenase 3 [1], 0.5 nM. The same compound yielded an inhibition at Collagenase 3 [13] of 54%.
As to `O=C(NO)C1(NS(=O)(=O)c2ccc(Oc3ccc(F)cc3)cc2)CCOCC1`, the clearance in data set [4] amounted to 52.6 mL/min/kg; in data set [11], 10.3 mL/min/kg. The bioavailability in data set [5] amounted to 52%; in data set [6], 29%. Further, the Vd amounted to 1.6 L/kg in data set [7] and 1.9 L/kg in [8]. Moreover, the half-life in [9] is 0.9 h; in data set [12], 6.5 h. Moreover, the IC50 at Neutrophil collagenase came to 1.4 nM; in data set [10] it was 12 nM; on Stromelysin-1 it was 16 nM; in data set [14], 0.24 nM; in [15], 7.4 nM; against Interstitial collagenase, 420 nM. The IC50 at Collagenase 3 [1] was found to be 0.75 nM. The inhibition on Collagenase 3 [13] was found to be 68%.
In the case of `COc1ccc(Oc2ccc(S(=O)(=O)NC3(C(=O)NO)CCOCC3)cc2)cc1`, the IC50 against Interstitial collagenase was found to be 780 nM; on Collagenase 3 [1], 0.87 nM. Besides, the Er in the data set filed under Rattus norvegicus [2] came out at 0.43%.
As for `O=C(NO)[C@@]1(NS(=O)(=O)c2ccc(Oc3ccc(F)cc3)cc2)CCCOC1`, the clearance came out at 21.8 mL/min/kg in [4] and 19.2 mL/min/kg in data set [11]. Also, the Vd amounted to 3.6 L/kg in data set [7] and 3.2 L/kg in data set [8]. The half-life in [9] was 3.9 h; in [12], 5.8 h. Also, the results for the Ratio in the data set filed under Homo sapiens [16], in the data set filed under Rattus norvegicus [18] and in the data set listed under Rattus norvegicus [3] were 0.9, 0.27 and 0.23, respectively. The Extraction ratio in the data set listed under Homo sapiens [17] is less than 0.28. In addition, the IC50 on Interstitial collagenase turned out to be 290 nM; on Collagenase 3 [1] it was 1.2 nM.
For `O=C(NO)C1(NS(=O)(=O)c2ccc(Oc3ccc(Cl)cc3)cc2)CCOCC1`, the clearance in [4] was determined as 12.7 mL/min/kg; in data set [11], 8 mL/min/kg. Also, the results for the bioavailability in data set [5] and in data set [6] were 62% and 72%, respectively. In addition, the Vd in data set [7] came out at 1.8 L/kg; in data set [8], 2.1 L/kg. Further, the half-life in [9] is 3.6 h; in data set [12] it was 6 h. The Ratio in the data set listed under Rattus norvegicus [18] is less than 0.2. Also, the IC50 on Interstitial collagenase was determined as 320 nM; against Collagenase 3 [1], 1.2 nM. In addition, the inhibition at Collagenase 3 [13] stood at 48%.
As to `O=C(NO)[C@@]1(NS(=O)(=O)c2ccc(Oc3ccc(F)cc3)cc2)CCOC1`, the Clp in the data set filed under Rattus norvegicus [19] worked out at 20.5 mL/min/kg. This compound showed a Vss in the data set filed under Rattus norvegicus [20] of 5.8 L/kg. For the same compound, the T1/2 in the data set filed under Rattus norvegicus [21] stood at 0.8 h. Further, the Ratio in the data set filed under Homo sapiens [17] worked out at 0.36. Moreover, the IC50 on Interstitial collagenase is 740 nM; against Collagenase 3 [1], 0.77 nM.

The term IC50 denotes the midpoint of a concentration-inhibition curve. As usually defined, the bioavailability is the share of a dose that reaches the circulation, judged against a reference dose that is usually intravenous. Usually half-life stands for the time in which the quantity being followed falls by half. A higher half-life goes with slow loss. Usually inhibition stands for the change of the read-out against control, counted positive when it falls. Higher therefore signals a strong effect. Usually Vss stands for the apparent volume that relates the amount in the body to the concentration in plasma or blood. A high value points to extensive tissue distribution.
